Source: PubChem BioAssay AID1259411 (Chemical Carcinogenesis Research Information System (CCRIS), 2018)
The source made the active and inactive calls. The rule behind the calls is not given here.

Test system: rodent carcinogenicity bioassays, tumor incidence
Experiment: CCRIS carcinogenicity studies
Summary of the method: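 Archive of carcinogenicity, mutagenicity, tumor promotion and tumor inhibition results drawn from journals, NCI reports and other sources, expert-reviewed; covers 1985-2011 and is no longer updated.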

Measured: carcinogen call

Nc1ccc(Cc2ccc(N)cc2)cc1
active: Species: MOUSE, Strain/Sex: B6C3F1/FEMALE, Route: ORAL, Dose: 0, 0.015, 0.03% IN DIET FOR 103 WK (STUDY DURATION: 104 WK), Dose: 0, 0.015, 0.03% IN DIET FOR 103 WK (STUDY DURATION: 104 WK), Tumor Site: Type of Lesion: THYROID GLAND: FOLLICULAR ADENOMA, LIVER: HEPATOCELLULAR ADENOMA, LIVER: HEPATOCELLULAR CARCINOMA, Tumor Site: Type of Lesion: THYROID GLAND: FOLLICULAR ADENOMA, LIVER: HEPATOCELLULAR ADENOMA, LIVER: HEPATOCELLULAR CARCINOMA active; positive | Species: MOUSE, Strain/Sex: B6C3F1/FEMALE, Route: ORAL, Dose: 0, 150, 300 PPM IN DRINKING WATER, Dose: 0, 150, 300 PPM IN DRINKING WATER, Tumor Site: Type of Lesion: THYROID GLAND: FOLLICULAR CELL ADENOMA, CARCINOMA, LIVER: HEPATOCELLULAR ADENOMA, CARCINOMA, LYMPHATIC SYSTEM: MALIGNANT, Tumor Site: Type of Lesion: THYROID GLAND: FOLLICULAR CELL ADENOMA, CARCINOMA, LIVER: HEPATOCELLULAR ADENOMA, CARCINOMA, LYMPHATIC SYSTEM: MALIGNANT active; positive | Species: MOUSE, Strain/Sex: B6C3F1/MALE, Route: ORAL, Dose: 0, 0.015, 0.03% IN DIET FOR 103 WK (STUDY DURATION: 104 WK), Dose: 0, 0.015, 0.03% IN DIET FOR 103 WK (STUDY DURATION: 104 WK), Tumor Site: Type of Lesion: THYROID GLAND: FOLLICULAR ADENOMA, LIVER: HEPATOCELLULAR CARCINOMA active; positive | Species: MOUSE, Strain/Sex: B6C3F1/MALE, Route: ORAL, Dose: 0, 150, 300 PPM IN DRINKING WATER, Dose: 0, 150, 300 PPM IN DRINKING WATER, Tumor Site: Type of Lesion: THYROID GLAND: FOLLICULAR CELL ADENOMA, ADRENAL GLAND: PHEOCHROMOCYTOMA, LIVER: HEPATOCELLULAR ADENOMA, CARCINOMA, Tumor Site: Type of Lesion: THYROID GLAND: FOLLICULAR CELL ADENOMA, ADRENAL GLAND: PHEOCHROMOCYTOMA, LIVER: HEPATOCELLULAR ADENOMA, CARCINOMA active; positive | Species: RAT, Strain/Sex: F344/FEMALE, Route: ORAL, Dose: 0, 0.015, 0.03% IN DIET FOR 103 WK (STUDY DURATION: 104 WK), Dose: 0, 0.015, 0.03% IN DIET FOR 103 WK (STUDY DURATION: 104 WK), Tumor Site: Type of Lesion: THYROID GLAND: FOLLICULAR ADENOMA active; positive | Species: RAT, Strain/Sex: F344/FEMALE, Route: ORAL, Dose: 0, 150, 300 PPM IN DRINKING WATER, Dose: 0, 150, 300 PPM IN DRINKING WATER, Tumor Site: Type of Lesion: THYROID GLAND: FOLLICULAR CELL ADENOMA, CARCINOMA, C CELL ADENOMA, CARCINOMA active; positive | Species: RAT, Strain/Sex: F344/MALE, Route: ORAL, Dose: 0, 0.15, 0.03% IN DIET FOR 103 WK (STUDY DURATION: 104 WK), Dose: 0, 0.15, 0.03% IN DIET FOR 103 WK (STUDY DURATION: 104 WK), Tumor Site: Type of Lesion: THYROID GLAND: FOLLICULAR CARCINOMA, LIVER: NEOPLASTIC NODULE active; positive | Species: RAT, Strain/Sex: F344/MALE, Route: ORAL, Dose: 0, 150, 300 PPM IN DRINKING WATER, Dose: 0, 150, 300 PPM IN DRINKING WATER, Tumor Site: Type of Lesion: THYROID GLAND: FOLLICULAR CELL ADENOMA, CARCINOMA, LIVER: NEOPLASTIC NODULE active; positive

O=[N+]([O-])c1ccccc1Cl
active: Species: MOUSE, Strain/Sex: CD-1/FEMALE, Route: ORAL, Dose: 3000, 6000 MG/KG IN DIET FOR 18 MO, Tumor Site: Type of Lesion: LIVER: HEPATOCELLULAR CARCINOMA active; positive

C=CC(=C)C
active: Species: MOUSE, Strain/Sex: B6C3F1/MALE, Route: INHALATION, Dose: 0, 10, 70, 280, 700, 2200 PPM 8 HR/D 5 D/WK FOR 80 WK (STUDY DURATION: 104 WK), Dose: 0, 10, 70, 280, 700, 2200 PPM 8 HR/D 5 D/WK FOR 80 WK (STUDY DURATION: 104 WK), Tumor Site: Type of Lesion: LUNG: ALVEOLAR/BRONCHIOLAR ADENOMA OR CARCINOMA, LIVER: HEPATOCELLULAR ADENOMA OR CARCINOMA, HARDERIAN GLAND: ADENOMA, Tumor Site: Type of Lesion: LUNG: ALVEOLAR/BRONCHIOLAR ADENOMA OR CARCINOMA, LIVER: HEPATOCELLULAR ADENOMA OR CARCINOMA, HARDERIAN GLAND: ADENOMA active; positive | Species: MOUSE, Strain/Sex: B6C3F1/MALE, Route: INHALATION, Dose: 0, 70, 140, 2200 PPM 8 HR/D 5 D/WK FOR 40 WK (STUDY DURATION: 104 WK), Dose: 0, 70, 140, 2200 PPM 8 HR/D 5 D/WK FOR 40 WK (STUDY DURATION: 104 WK), Tumor Site: Type of Lesion: LUNG: ALVEOLAR/BRONCHIOLAR ADENOMA OR CARCINOMA, LIVER: HEPATOCELLULAR ADENOMA OR CARCINOMA, HARDERIAN GLAND: ADENOMA, Tumor Site: Type of Lesion: LUNG: ALVEOLAR/BRONCHIOLAR ADENOMA OR CARCINOMA, LIVER: HEPATOCELLULAR ADENOMA OR CARCINOMA, HARDERIAN GLAND: ADENOMA active; positive | Species: MOUSE, Strain/Sex: B6C3F1/MALE, Route: INHALATION, Dose: 0, 70, 220, 700, 2200, 7000 PPM 6 HR/D 5 D/WK FOR 26 WK FOLLOWED BY A 26-WK RECOVERY PERIOD (STUDY DURATION: 52 WK), Dose: 0, 70, 220, 700, 2200, 7000 PPM 6 HR/D 5 D/WK FOR 26 WK FOLLOWED BY A 26-WK RECOVERY PERIOD (STUDY DURATION: 52 WK), Tumor Site: Type of Lesion: LIVER: ADENOMA OR CARCINOMA, LUNG: ALVEOLAR/BRONCHIOLAR ADENOMA OR CARCINOMA, FORESTOMACH: PAPILLOMA OR CARCINOMA, HARDE, Tumor Site: Type of Lesion: LIVER: ADENOMA OR CARCINOMA, LUNG: ALVEOLAR/BRONCHIOLAR ADENOMA OR CARCINOMA, FORESTOMACH: PAPILLOMA OR CARCINOMA, HARDE active; positive | Species: MOUSE, Strain/Sex: B6C3F1/MALE, Route: INHALATION, Dose: 0, 280 PPM 8 HR/D 5 D/WK FOR 20 WK (STUDY DURATION: 104 WK), Tumor Site: Type of Lesion: HARDERIAN GLAND: ADENOMA, LIVER: ADENOMA active; positive | Species: MOUSE, Strain/Sex: B6C3F1/MALE, Route: INHALATION, Dose: 0, 2200 PPM 4 HR/D 5 D/WK FOR 20 WK (STUDY DURATION: 104 WK), Tumor Site: Type of Lesion: HARDERIAN GLAND: ADENOMA, LIVER: HEPATOCELLULAR ADENOMA OR CARCINOMA active; positive | Species: MOUSE, Strain/Sex: B6C3F1/MALE, Route: INHALATION, Dose: 0, 2200 PPM 4 HR/D 5 D/WK FOR 80 WK (STUDY DURATION: 104 WK), Tumor Site: Type of Lesion: LIVER: HEPATOCELLULAR ADENOMA OR CARCINOMA, HARDERIAN GLAND: ADENOMA active; positive | Species: RAT, Strain/Sex: F344/N/FEMALE, Route: INHALATION, Dose: 0, 220, 700, 7000 PPM 6 HR/D 5 D/WK FOR 105 WK (STUDY DURATION: 105 WK), Dose: 0, 220, 700, 7000 PPM 6 HR/D 5 D/WK FOR 105 WK (STUDY DURATION: 105 WK), Tumor Site: Type of Lesion: MAMMARY GLAND: FIBROADENOMA active; positive | Species: RAT, Strain/Sex: F344/N/MALE, Route: INHALATION, Dose: 0, 220, 700, 7000 PPM 6 HR/D 5 D/WK FOR 105 WK (STUDY DURATION: 105 WK), Dose: 0, 220, 700, 7000 PPM 6 HR/D 5 D/WK FOR 105 WK (STUDY DURATION: 105 WK), Tumor Site: Type of Lesion: KIDNEY: ADENOMA OR CARCINOMA, MAMMARY GLAND: FIBROADENOMA OR CARCINOMA, TESTES: ADENOMA, Tumor Site: Type of Lesion: KIDNEY: ADENOMA OR CARCINOMA, MAMMARY GLAND: FIBROADENOMA OR CARCINOMA, TESTES: ADENOMA active; positive
